Data: US20260258054A1, “SMALL MOLECULE FOR TREATMENT OF CANCER OF THE APPENDIX” (The Regents of the University of California, priority 2022, published 2026)
“Also recorded” adds a separate entry of the source.

Columns and labels:
[1] = tested on: KM12 GNAS^R201H organoids; assay: 3D organoid growth, KM12 GNAS^R201H organoids; format: cell-based, human; settings: H-89 60 μM, 10 days, vs. DMSO control, p=0.004
Experimental: (§1) FIGS. 4A-4C: GNAS signals through the CAMP-PKA axis. (FIG. 4A), KM12 GNAS^R201H and GNAS^352delG cells were treated with forskolin (0-250 μM) for 15 min. Following the treatment, cells were lysed, and cAMP levels were measured as described in the methods. (FIG. 4B), LS174T GNAS^R201H cells were treated with and without doxycycline, and cAMP levels measured after induction with forskolin (0-2.5 μM) for 15 min. (FIG. 4C), KM12 GNAS^R201H and GNAS^352delG organoids were grown in 3D-matrigel domes and treated with the PKA inhibitor H-89 (60 μM) for 10 days.
FIGS. 5A-5F: β-catenin is a downstream mediator of mutant GNAS signaling. (FIG. 5A), Top 10 hallmark genesets from the KM12 GNAS^KO-pool and LS174T GNAS overexpression datasets were selected and overlapping genesets were plotted. […] (FIG. 5D), Quantification of IHC tumors showing % of cells staining positive of β-catenin. (FIG. 5E), Quantification of the cytoplasmic and nuclear distribution of β-catenin based on IHC staining. […]
(§2) KM12 and LS174T cells were suspended with Matrigel (BD) at 100 cells/μL and plated as 5 μL droplets onto 96-well multi-well culture plates. […] The plates were placed in the cell imaging multi-mode plate reader Cytation™ 5 (Biotek, Winooski, VT) at 37° C. in an atmosphere supplemented with 5% CO2. […] The numbers and total area of organoids were calculated.

[2] = tested on: KM12 GNAS^352delG organoids; assay: 3D organoid growth, KM12 GNAS knockout (GNAS^352delG) organoids; format: cell-based, human; settings: supplementation of organoid cultures with conditioned medium
Experimental: as §1
FIGS. 5A-5F: β-catenin is a downstream mediator of mutant GNAS signaling. (FIG. 5A), Top 10 hallmark genesets from the KM12 GNAS^KO-pool and LS174T GNAS overexpression datasets were selected and overlapping genesets were plotted. (FIG. 5B), Ratio of pT41/S45 phosphoβ-catenin/β-catenin based on the RPPA analysis results. (FIG. 5C), Immunohistochemistry (IHC) staining of β-catenin in LS174T dox (−) and dox (+) tissues from intraperitoneal mouse tumors. (FIG. 5D), Quantification of IHC tumors showing % of cells staining positive of β-catenin. (FIG. 5E), Quantification of the cytoplasmic and nuclear distribution of β-catenin based on IHC staining. (FIG. 5F), Effect of LF3 (β-catenin inhibitor) on the growth of KM12 (GNAS^R201H and GNAS^352delG) organoids. DMSO (0.2%) was used as control treatment and organoids were cultured for 10 days.
FIGS. 9A-9B: Wnt stimulation rescued growth of GNAS knockout organoids. (FIG. 9A), 3D growth of KM12 GNAS knockout organoids after supplementation with Wnt3a or R-spondin conditioned medium. (FIG. 9B), Quantification of growth by measuring total colony area (%).
as §2, with “plates. The plates were incubated at 37° C. for 15 min.” for “plates.”

[3] = tested on: SNU-175 cells (GNAS^R201C); assay: Incucyte viability (confluence), SNU-175 cells; format: cell-based, human
Experimental: (§3) Viability was measured over time but determining cell confluence in experimental well using Incucyte Live-Cell Analysis system (Sartorius). JVS-324 was added in increasing concentrations and cell growth monitored for 72 hours. Confluency evaluation was normalized time point zero. An isogenic paired cell line was created by using CRISPR-Cas9 to knockout (KO) GNAS from the SNU-175 cell line; this model system has been previously described (Oncogene. 2022 August; 41 (35):4159-4168).
(§4) Viability was measured over time but determining cell confluence in experimental well using Incucyte Live-Cell Analysis system (Sartorius); two experiments performed. […] (FIG. 26).

[4] = tested on: GNAS KO SNU-175; assay: Incucyte viability (confluence), GNAS KO SNU-175 cells; format: cell-based, human
Experimental: as §3, §4

[5] = tested on: SNU-175 (GNAS^R201C CRC cell line); assay: cAMP-Glo assay, SNU-175 cells; format: cell-based, human
Experimental: (§5) A study was conducted to examine the effect of compound GE3 as a Gαs Inhibitor. Cells were treated with compound GE3 at high (1-5 mM) and low (0-0.5 mM) doses for 20 hours. cAMP levels were measured using the CAMP-Glo™ Assay (Promega). An isogenic paired cell line was created by using CRISPR-Cas9 to knockout (KO) GNAS from the SNU-175 cell line; this model system has been previously described (Oncogene. 2022 August; 41(35):4159-4168).
(§6) The same experimental system was used as above to test lower doses of GE3.

[6] = tested on: GNAS KO isogenic paired cell line of SNU-175; assay: cAMP-Glo assay, GNAS KO SNU-175 cells; format: cell-based, human; settings: mM doses (1-5 mM), 20 hours
Experimental: as §5, §6

[7] = tested on: LS174T GNAS^R201H cells; assay: cAMP levels, LS174T cells overexpressing GNAS^R201H; format: cell-based, human; settings: forskolin 0-2.5 μM, 15 min; doxycycline induced
Experimental: as §1

[8] = tested on: MEK regulated genes; assay: RNAseq analysis of post-treatment samples from trial NCT03108131 in appendiceal cancer; format: in vivo; settings: cobimetinib with atezolizumab, three post-treatment samples

## O=S(=O)(NCCNC/C=C/c1ccc(Br)cc1)c1cccc2cnccc12 [Compound H-89]
[1]
  reduced the growth of KM12 organoids: 79%

## Wnt3a
[2]
  rescue of organoid growth of GNAS-knockout cells: rescued organoid growth
[2]; listed as WNT3A
  rescue of organoid growth of GNAS-knockout cells: can be rescued
[2]; listed as Wnt3A
  rescue of organoid growth of GNAS-knockout cells: rescue GNAS knockout

## CCC(CC)COC(=O)[C@H](C)NP(=O)(OC[C@H]1O[C@@H](n2cnc3c(=O)[nH]c(N)nc32)[C@@H]2O[C@@H]21)Oc1ccccc1 (stereo partly drawn) [GE3]
[3]
  dose by which growth was comparable to the level in the KO cells: 0.01 mM
[3]; GE3, lower doses
  cell growth / viability: dose-dependent fashion; also recorded: decreased viability
[3]; GE3 at mM doses
  cell growth: significantly reduced growth
[3]; GE3 by 1 mM
  cell growth: essentially no growth
[3]; Homo sapiens, read-out: IC50 in viability assay
  IC50: 105 µM
[4]; GE3 at mM doses
  cell growth: significantly reduced growth
[4]; GE3 by 1 mM
  cell growth: essentially no growth
[5]
  potency relative to JVS-324 (cAMP): significantly more potent
[5]; 20 hours
  dose by which cAMP level was comparable to the level in the KO cells: 0.01 mM
[5]; lower doses (0-0.5 mM), 20 hours
  cAMP levels: dose-dependent fashion; also recorded: inhibits cAMP production
[5]; mM doses (1-5 mM), 20 hours
  cAMP levels: significantly reduced CAMP; also recorded: inhibits cAMP production
[6]
  cAMP levels: significantly reduced CAMP

## C=C[C@@]1(C)CC(=O)[C@]2(O)[C@@]3(C)[C@@H](O)CCC(C)(C)[C@@H]3[C@H](O)[C@H](OC(C)=O)[C@@]2(C)O1 [forskolin]
[7]
  effect of forskolin on basal levels of cAMP: no effect

## O=C(c1ccc(F)c(F)c1Nc1ccc(I)cc1F)N1CC(O)([C@@H]2CCCCN2)C1 [cobimetinib]
[8]
  expression of MEK regulated genes: not down regulated
